Common to all, as to assay: DTP human tumour cell line panel, 48 h
Assay [1] relates to BT-549 breast.
In assay [2] the test system is MOLT-4 leukemia.
Assay [3] concerns CAKI-1 renal.
Assay [4] has as its system MDA-MB-435.
For assay [5], the system named is SNB-75 CNS.
The subject of assay [6] is K-562 leukemia.
For assay [7], the system named is T-47D breast.
The test system of assay [8] is LOX IMVI melanoma.
For assay [9], the system named is DU-145 prostate.
Assay [10] concerns HT29 colon.
The test system of assay [11] is HCT-116 colon.
Assay [12] concerns M14 melanoma.
Assay [13] has as its system NCI-H23 lung.
Assay [14] relates to OVCAR-4 ovarian.
Assay [15] has as its system SR leukemia.

TGI data for 16 compounds are collected here from PubChem BioAssay (NCI).

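Grown in 96-well plates, cells were treated for 48 hours with each compound at five concentrations. Insufficient inhibition: endpoint recorded as highest concentration tested. TGI: total growth inhibition.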 Bounds are passed on as bounds.

With `CCCCN(Cc1ccccc1)C(=NC#N)N(Cc1ccccc1)Cc1ccccc1`, the TGI in assay [1] is 62.8 µM; in assay [2], more than 100 µM; in assay [3] it was 58.4 µM; in [4] it was 59.3 µM; in assay [5], 71.4 µM; in assay [6], more than 100 µM. The TGI was more than 100 µM in assay [7]; 35.1 µM in assay [8]; more than 100 µM in assay [9]; 85.2 µM in assay [10]; 31.8 µM in assay [11]; 47.4 µM in [12]. Also, the values for the TGI in assay [13] and in [14] were more than 74.5 µM and more than 100 µM, respectively.
Regarding `O=C(c1ccccc1)N1OCCC1Nc1ccc(Br)cc1` (stereo not drawn), the TGI in assay [1], in assay [2], in assay [3], in assay [4], in assay [5] and in [6] was more than 10 µM in each case. Also, the TGI in [7], in assay [8], in assay [9], in [10], in assay [11] and in [12] was more than 10 µM each time. Besides, the TGI in assay [13] and in assay [14] was more than 10 µM throughout.
`CN(C(=O)C1CCCCCC1=O)c1ccccc1Cl` (stereo not drawn): the TGI in assay [1], in assay [2], in assay [3], in assay [4], in [5] and in assay [7] was more than 100 µM each time. Moreover, the TGI in assay [8], in assay [9], in [10], in [11], in [12] and in assay [13] was more than 100 µM throughout. The same compound yielded a TGI in [14] of more than 100 µM.
For the compound `CC(=O)N1C(NN(C)C)CCN1c1ccccc1` (stereo not drawn), the TGI in assay [15], in assay [2], in [3], in [4], in [5] and in assay [6] was more than 10 µM throughout. Further, the TGI in assay [7], in assay [9], in assay [10], in [12], in assay [13] and in assay [14] was more than 10 µM each time.
As to `CC1OC(OC2C(OC(=O)[C@@H]3CC(C)(C)C[C@@H]4C5=CC[C@@H]6[C@@]7(C)C[C@H](O)[C@H](OC8OC(CO)C(O)C(O)C8O)[C@@](C)(CO)C7[C@H](O)C[C@@]6(C)[C@]5(C)C[C@@H](O)[C@H]43)OCC(O)C2O)C(O)C(O)C1O` (stereo partly drawn), the TGI in assay [1], in [2], in [3], in assay [4], in assay [5] and in [6] was more than 15 µM throughout. For the same compound, the total growth inhibition concentration (TGI) in assay [7], in [8], in [9], in assay [10], in assay [11] and in [12] was more than 15 µM each time. Further, the TGI in assay [13] and in [14] was more than 15 µM each time.
Turning to `CC1=C(C)C1[N+](=O)[O-]`, the TGI in assay [1], in [2], in assay [3], in assay [4], in assay [5] and in [6] was more than 100 µM in each case. In addition, the TGI in assay [7], in assay [8], in assay [9], in [10], in [11] and in [12] was more than 100 µM throughout. The TGI in assay [13] and in [14] was more than 100 µM each time.
As for `N#Cc1cc(-c2nc3c(F)cccc3s2)ccc1N`, the TGI in [1], in assay [2], in assay [3], in assay [4], in assay [5] and in assay [6] was more than 100 µM in each case. For the same compound, the TGI in assay [7], in assay [8], in assay [9], in assay [10], in assay [11] and in assay [12] was more than 100 µM throughout. Also, the TGI in [13] and in assay [14] was more than 100 µM throughout.
Regarding `COc1cc(/C=C2\C(=O)N(c3ccccc3Cl)C(c3ccccc3)S2(=O)=O)cc(OC)c1OC` (stereo not drawn), the TGI was more than 100 µM in [1]; 36.4 µM in [2]; more than 100 µM in [3]; more than 100 µM in assay [4]; 94.9 µM in [6]; more than 100 µM in assay [7]. Besides, the TGI in [8] was 50.5 µM; in [9] it was more than 100 µM; in assay [10], 52.2 µM; in assay [11] it was more than 100 µM; in assay [12] it was more than 100 µM; in assay [13] it was more than 100 µM. Also, the TGI in [14] is more than 100 µM.
For `CN(N)/N=N/c1nc[nH]c1[N+](=O)[O-]`, the TGI in [1] is more than 100 µM; in assay [2], 54.6 µM; in [3] it was 40.9 µM; in [4], more than 100 µM; in assay [5] it was more than 100 µM; in assay [6], 73 µM. In addition, the TGI in [7], in assay [8], in [9], in assay [10], in assay [11] and in [12] was more than 100 µM throughout. Further, the TGI in assay [13] and in [14] was more than 100 µM throughout.
As to `CC1=C(C(=O)N(C(C)C)C(C)C)CC(C(=O)N(C(C)C)C(C)C)=C(C)N1`, the TGI in assay [1], in assay [2], in assay [3], in assay [4], in assay [5] and in assay [6] was more than 100 µM each time. Moreover, the TGI in assay [7], in assay [8], in assay [9], in assay [10], in [11] and in [12] was more than 100 µM in each case. For the same compound, the total growth inhibition concentration (TGI) in assay [13] and in assay [14] was more than 100 µM in each case.
Regarding `CCN(CC)c1c(-c2c(N(CC)CC)c(OC(C)=O)c3sccn3c2=O)c(=O)n2ccsc2c1OC(C)=O`, the TGI in assay [1] is more than 100 µM; in assay [2], more than 100 µM; in assay [3], more than 100 µM; in [4] it was more than 100 µM; in assay [5], 39.3 µM; in assay [6] it was more than 100 µM. Moreover, the TGI in [8], in assay [9], in assay [10], in assay [11], in assay [12] and in assay [13] was more than 100 µM in each case. Also, in assay [14], the TGI is more than 100 µM.
In the case of `O=C1CCCC1C(O)(C(F)(F)F)C(F)(F)F` (stereo not drawn), the TGI in [15], in assay [2], in [3], in assay [4], in [5] and in assay [6] was more than 100 µM throughout. In addition, the TGI in assay [7], in assay [8], in assay [9], in assay [10], in assay [11] and in assay [12] was more than 100 µM throughout. In addition, the TGI in assay [13] and in assay [14] was more than 100 µM in each case.
With `Oc1cc(-c2ccc(Cl)cc2)cn2c1nc1ccccc12`, the TGI in [3], in assay [4], in assay [5], in assay [6], in [7] and in assay [8] was more than 100 µM in each case. For the same compound, the TGI in assay [9], in [10], in [11], in assay [12], in assay [13] and in [14] was more than 100 µM in each case.
Take `COC(=O)[C@@H](NC(=O)N(CCC#N)CCCN(C(=O)N[C@H](Cc1ccccc1)C(=O)OC)c1ccccc1)C(C)C`: the TGI in assay [1], in assay [2], in assay [3], in [4], in assay [5] and in [7] was more than 100 µM in each case. The total growth inhibition concentration (TGI) in assay [8], in assay [9], in assay [11], in [12], in assay [13] and in assay [14] was more than 100 µM in each case.
On to `C=CCc1ccccc1CC1(OCC)OC(=O)c2ccccc21` (stereo not drawn), for which the TGI in assay [1] was more than 100 µM; in [2], more than 100 µM; in [3], more than 100 µM; in [4], 96.9 µM; in [5] it was 53.1 µM; in [6], more than 100 µM. The TGI in [7], in assay [9], in assay [10], in [11], in assay [12] and in assay [13] was more than 100 µM each time. In addition, the TGI in assay [14] is more than 100 µM.
Consider `NC(=S)N/N=C1/CCCC2CCCC[C@@H]12` (stereo partly drawn), for which the TGI in assay [15], in [2], in assay [3], in assay [4], in [5] and in assay [6] was more than 100 µM each time. Further, the TGI in assay [7], in [8], in [9], in assay [10], in assay [12] and in assay [13] was more than 100 µM each time. The TGI in assay [14] is more than 100 µM.
